PMC12348470, “Amino Acid Substitutions in Bacteriocin Lactolisterin BU Reveal Functional Domains Involved in Biological Activity Against Staphylococcus aureus” (Molecules, 2025)
Several values for one entry are separate records, joined by “and”; a condition that tells them apart may be missing. Equal entries are not always repeated. Where two headings read alike, the source gives them in different places. Ends that are not written are not given here.

Experiments:
S. aureus ATCC 25923 [1] = assay: Spot-on-the-lawn antimicrobial screening; type: cell-based, Staphylococcus aureus; details: 5 µL spots at 1000, 500, 250, 125 and 62.5 µg/mL on LB soft agar lawn; overnight, 37 °C
Experimental: The antimicrobial activity screening assay of twelve chemically synthesized peptides was evaluated using a spot-on-the-lawn assay against S. aureus ATCC 25923.
S. aureus ATCC 25923 was grown overnight in LB broth, adjusted to 0.5 McFarland (~1 × 10^8 CFU/mL), and mixed 1:100 into molten soft agar (0.7% agar in LB). Five milliliters of this suspension was overlaid onto LB agar plates and allowed to solidify.
Peptide stock solutions (1 mg/mL) were serially diluted in sterile water, and 5 µL of each dilution was carefully spotted onto the surface of the inoculated agar. The plates were dried under a laminar flow hood for 15–20 min and incubated overnight at 37 °C. Zones were observed, and their size and clarity were compared.

sheep erythrocytes = assay: Hemolysis assay; type: cell-based; details: for hemolytic activity, in words: 6.25 to 50 µg/mL, sheep erythrocytes, 37 °C, 1 h
Experimental: Hemolytic activity of peptides was assessed as described by Dong et al., with some modifications. Fresh defibrinated sheep blood was obtained from the Institute of Virology, Vaccines and Sera “Torlak” (Belgrade, Serbia). Erythrocytes were washed three times with sterile Tris-buffered saline (TBS, 10 mM TRIS-HCl, pH 7.4, 150 mM NaCl) by centrifugation at 800× g for 5 min and resuspended to a final 2% (v/v) erythrocyte suspension in TBS.
Peptide solutions (0.02 M HCl) were diluted in Tris-buffered saline (TBS, 10 mM TRIS-HCl, pH 7.4, 150 mM NaCl) to final concentrations ranging from 6.25 to 50 µg/mL. In a 96-well flat-bottom plate, 100 µL of peptide solution was mixed with 100 µL of erythrocyte suspension and incubated at 37 °C for 1 h.
After incubation, the plates were centrifuged at 1000× g for 5 min, and 100 µL of the supernatant was transferred to a flat-bottom 96-well plate. Absorbance was measured at 540 nm using a microplate reader (model BioTek Epoch Microplate Spectrophotometer; Agilent Technologies, Winooski, VT, USA).
Hemolysis (%) was calculated relative to a negative control (TBS; 0% lysis) and a positive control (0.1% SDS; 100% lysis) using the formula: Hemolysis (%)=Asample−ATBS/ASDS−ATBS×100
The assay was performed in triplicate.

S. aureus ATCC 25923 [2] = type: cell-based, Staphylococcus aureus
clfA = details: half MIC, 16–18 h, 37 °C, normalised to gmk, duplicate
Excerpt: (§1) Six virulence-related genes were selected (agrA, clfA, icaR, lukSPV, spa, and hla) to capture a representative profile of quorum sensing regulation (agrA), adhesion (clfA), biofilm repression (icaR), immune evasion (spa), and cytolytic toxin production (lukSPV and hla), providing an exploratory view of how peptide treatment influences the distinct profile of S. aureus pathogenicity.
(§2) The effect of sub-inhibitory peptide concentrations on S. aureus ATCC 25923 virulence gene expression was evaluated using quantitative real-time PCR (RT-qPCR). […] Untreated bacterial cultures in corresponding media served as controls.
(§3) Total RNA was extracted using the RNeasy Mini Kit (QIAGEN GmbH, Hilden, Germany). Samples were treated with Dnase I (Thermo Fisher Scientific) to remove genomic DNA contamination. RNA concentration and purity were determined using a NanoDrop spectrophotometer (A260/A280 ratio 1.9–2.1).
(§4) Complementary DNA (cDNA) synthesis was performed using […] of total RNA and the RevertAid RT Reverse Transcription Kit (Thermo Fisher Scientific) with random hexamer primers, according to the manufacturer’s instructions. Quantitative PCR was performed using FastGen 2x IC Green qPCR Universal (Nippon Genetics) on a LineGene 9600 Plus Real Time thermocycler (Bioer Technology Co., Ltd., Hangzhou, China). Primer sequences (Table S3) for the virulence-related genes agrA, clfA, hla, icaR, lukS-PV, and spa were used. The housekeeping gene gmk (guanylate kinase) was used for normalization.
(§5) Primer efficiency (90–110%) and specificity were confirmed by melt curve analysis. Relative expression levels were calculated using the ΔΔCt method, as reported by Livak et Schmittgen, comparing treated samples to their corresponding untreated controls in each medium. A log2 fold change ≥1 or ≤−1 was considered biologically significant. All experiments were performed in duplicate.

spa = details: half MIC, 16–18 h, 37 °C, normalised to gmk, duplicate
Excerpt: as §1, §2, §3, §4, §5

agrA = details: half MIC, 16–18 h, 37 °C, normalised to gmk, duplicate
Excerpt: as §1, §2, §3, §4, §5

hla = details: half MIC, 16–18 h, 37 °C, normalised to gmk, duplicate
icaR = assay: Virulence gene expression, RT-qPCR; type: cell-based, S. aureus ATCC 25923; details: half MIC, 16–18 h, 37 °C, normalised to gmk, duplicate
Experimental: (§6) Untreated bacterial cultures in corresponding media served as controls.
(§7) All experiments were performed in duplicate.

lukSPV = assay: Virulence gene expression, RT-qPCR; type: cell-based, S. aureus ATCC 25923; details: half MIC, 16–18 h, 37 °C, normalised to gmk, duplicate
Experimental: as §6, §7

Sequence: MWARILGTVAKYGPKAVSWAWQHKWELINMGDLAFRYIQRIWG [Peptide G3A]
- zones of inhibition, spot-on-the-lawn assay (S. aureus ATCC 25923 [1]): comparable to the wild-type LBU peptide
- hemolytic activity, in words (sheep erythrocytes): no measurable hemolysis up to 25 µg/mL
- MBC (S. aureus ATCC 25923 [2]): 25 µg/mL
- clfA expression, log2 fold-change vs untreated control (clfA; FBS): -1.55 log2 fold change
- clfA expression, log2 fold-change vs untreated control (clfA; LB medium): 0.76 log2 fold change
- spa expression, log2 fold-change vs untreated control (spa; FBS): 1.43 log2 fold change
- spa expression, log2 fold-change vs untreated control (spa; LB medium): 2.16 log2 fold change
- agrA expression, log2 fold-change vs untreated control (agrA; FBS): -0.47 log2 fold change
- agrA expression, log2 fold-change vs untreated control (agrA; LB medium): -0.93 log2 fold change
- hla expression, log2 fold-change vs untreated control (hla; FBS): -0.30 log2 fold change
- hla expression, log2 fold-change vs untreated control (hla; LB medium): 0.60 log2 fold change
- icaR expression, log2 fold-change vs untreated control (icaR; FBS): -1.43 log2 fold change
- icaR expression, log2 fold-change vs untreated control (icaR; LB medium): 0.06 log2 fold change
- lukSPV expression, log2 fold-change vs untreated control (lukSPV; FBS): -1.54 log2 fold change
- lukSPV expression, log2 fold-change vs untreated control (lukSPV; LB medium): 1.77 log2 fold change

Sequence: MWGRILATVAKYGPKAVSWAWQHKWELINMGDLAFRYIQRIWG [Peptide G7A]
- zones of inhibition, spot-on-the-lawn assay (S. aureus ATCC 25923 [1]): comparable to the wild-type LBU peptide
- hemolytic activity, in words (sheep erythrocytes): some membrane-disruptive potential at elevated concentrations (50 µg/mL)
- MBC (S. aureus ATCC 25923 [2]): 25 µg/mL
- clfA expression, log2 fold-change vs untreated control (clfA; FBS): -0.69 log2 fold change
- clfA expression, log2 fold-change vs untreated control (clfA; LB medium): -0.59 log2 fold change
- spa expression, log2 fold-change vs untreated control (spa; FBS): -0.27 log2 fold change
- spa expression, log2 fold-change vs untreated control (spa; LB medium): 0.37 log2 fold change
- agrA expression, log2 fold-change vs untreated control (agrA; FBS): 0.61 log2 fold change
- agrA expression, log2 fold-change vs untreated control (agrA; LB medium): -0.32 log2 fold change
- hla expression, log2 fold-change vs untreated control (hla; FBS): 0.51 log2 fold change
- hla expression, log2 fold-change vs untreated control (hla; LB medium): -0.62 log2 fold change
- icaR expression, log2 fold-change vs untreated control (icaR; FBS): 1.71 log2 fold change
- icaR expression, log2 fold-change vs untreated control (icaR; LB medium): 0.10 log2 fold change
- lukSPV expression, log2 fold-change vs untreated control (lukSPV; FBS): 1.22 log2 fold change
- lukSPV expression, log2 fold-change vs untreated control (lukSPV; LB medium): -2.88 log2 fold change

Sequence: MWGRILGTVAKYAPKAVSWAWQHKWELINMGDLAFRYIQRIWG [Peptide G13A]
- zones of inhibition, spot-on-the-lawn assay (S. aureus ATCC 25923 [1]): comparable to the wild-type LBU peptide
- hemolytic activity, in words (sheep erythrocytes): dose-dependent hemolysis
- Hemolytic activity (%) at 25 µg/mL (sheep erythrocytes; pH 7.4): 22.69%
- Hemolytic activity (%) at 50 µg/mL (sheep erythrocytes; pH 7.4): 28.86%
- MBC (S. aureus ATCC 25923 [2]): 12.5 µg/mL
- clfA expression, log2 fold-change vs untreated control (clfA; FBS): 0.64 log2 fold change
- clfA expression, log2 fold-change vs untreated control (clfA; LB medium): -0.19 log2 fold change
- spa expression, log2 fold-change vs untreated control (spa; FBS): 1.69 log2 fold change
- spa expression, log2 fold-change vs untreated control (spa; LB medium): -0.32 log2 fold change and −0.33 log2 fold change
- agrA expression, log2 fold-change vs untreated control (agrA; FBS): 0.82 log2 fold change
- agrA expression, log2 fold-change vs untreated control (agrA; LB medium): -0.40 log2 fold change
- hla expression, log2 fold-change vs untreated control (hla; FBS): 1.04 log2 fold change
- hla expression, log2 fold-change vs untreated control (hla; LB medium): -0.11 log2 fold change
- icaR expression, log2 fold-change vs untreated control (icaR; FBS): 2.66 log2 fold change
- icaR expression, log2 fold-change vs untreated control (icaR; LB medium): 0.36 log2 fold change
- lukSPV expression, log2 fold-change vs untreated control (lukSPV; FBS): 2.49 log2 fold change
- lukSPV expression, log2 fold-change vs untreated control (lukSPV; LB medium): -2.28 log2 fold change
